# Source: ChEMBL document CHEMBL5149973, “Agaricus bisporus-Derived Glucosamine Hydrochloride Facilitates Skeletal Injury Repair through Bmp Signaling in Zebrafish Osteoporosis Model” (J Nat Prod, 2021)
# Calls of active or inactive are those of the source. The rule behind the calls is not given here.
# Tests used:
# Danio rerio [1] = species: Danio rerio; assay: Induction of Zebrafish embryo skeletal development assessed as nuclear localization of p-Smad5 in tail at 0.1 % measured at 24 to 72 hrs post fertilization by DAPI staining based analysis; assay type: functional, tissue-based; conditions: time 24-72 hrs
# Danio rerio [2] = species: Danio rerio; assay: Induction of Zebrafish embryo skeletal development assessed as increase in Bmp7a mRNA expression level in gastrula stage at 0.05 to 0.1 % measured at 24 hrs post fertilization by ISH analysis; assay type: functional, tissue-based; conditions: dose 0.05-0.1 %
# Danio rerio [3] = species: Danio rerio; assay: Anti-osteoporosis activity in FAC-induced skeletal injury Zebrafish assessed as rescue of skeletal density in head at 0.1 % measured for 10 day post fertilization; assay type: functional, organism-based
# Danio rerio [4] = species: Danio rerio; assay: Induction of Zebrafish embryo skeletal development assessed as Bmp2b localization in cytoplasm at 0.1 % measured at 24 to 72 hrs post fertilization; assay type: functional, tissue-based; conditions: time 24-72 hrs
# Danio rerio [5] = species: Danio rerio; assay: Induction of Zebrafish Larva cartilage development assessed as increase in bone mineralization at 0.05 to 0.3 % measured at 6 days post fertilization by Alizarin red staining based assay; assay type: functional; conditions: dose 0.05-0.3 %, time 6.0 day
# Danio rerio [6] = species: Danio rerio; assay: Induction of Zebrafish embryo skeletal development assessed as increase in Bmp4 mRNA expression level in head at 0.1 to 0.3 % measured at 24 hrs post fertilization by ISH analysis; assay type: functional, tissue-based; conditions: dose 0.1-0.3 %
# Danio rerio [7] = species: Danio rerio; assay: Anti-osteoporosis activity in FAC-induced skeletal injury Zebrafish larvae assessed as reduction in bone damage measured for 10 day post fertilization by Alizarin red staining based assay; assay type: functional, Larva; set-up: scale not given: the % may be the effect or the level left
smiles,measurement,setting,value
Cl.N[C@@H]1[C@@H](O)[C@H](O)[C@@H](CO)O[C@H]1O,Activity,Danio rerio [1],Active
same,Activity,Danio rerio [2],Active
same,Activity,Danio rerio [3],Active
same,Activity,Danio rerio [4],Active
same,Activity,Danio rerio [5],Active
same,Activity,Danio rerio [6],Active
same,Activity,Danio rerio [7],70%
